Test system: NCI-H196 complex spheroid viability
Experiment: Anticancer human tumor NCI-H196 cell line growth inhibition [LSD1];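 also: spheroids exposed to agents for 7 days before readout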;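 as to viability, T/C: 100% = DMSO vehicle control viability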
Conditions: for IC50: curve of first compound; for viability, T/C: stronger effect = lower value
Procedure, shortened: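 Multicellular complex spheroids of tumor cells with human endothelial cells (HUVEC) and mesenchymal stem cells; the LSD1 inhibitor iadademstat was combined with standard-of-care or investigational agents. Top concentration at or near clinical Cmax, half-log dilutions; final DMSO ≤0.25%.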

[1] = second compound 0.1 µM, first compound 0.0316 µM
[2] = second compound 0.1 µM, first compound 0.1 µM
[3] = second compound 0.1 µM, first compound 0.316 µM
[4] = second compound 0.1 µM, first compound 1 µM
[5] = second compound 0.1 µM, first compound 3.16 µM
[6] = second compound 0.1 µM, first compound 10 µM
[7] = second compound 0.316 µM, first compound 0.0316 µM
[8] = second compound 0.316 µM, first compound 0.1 µM
[9] = second compound 0.316 µM, first compound 0.316 µM
[10] = second compound 0.316 µM, first compound 1 µM
[11] = second compound 0.316 µM, first compound 3.16 µM
[12] = second compound 0.316 µM, first compound 10 µM
[13] = second compound 1 µM, first compound 0.0316 µM
[14] = second compound 1 µM, first compound 0.1 µM
[15] = second compound 1 µM, first compound 0.316 µM
[16] = second compound 1 µM, first compound 1 µM
[17] = second compound 1 µM, first compound 3.16 µM
[18] = second compound 1 µM, first compound 10 µM
[19] = second compound 3.16 µM, first compound 0.0316 µM
[20] = second compound 3.16 µM, first compound 0.1 µM
[21] = second compound 3.16 µM, first compound 0.316 µM
[22] = second compound 3.16 µM, first compound 1 µM
[23] = second compound 3.16 µM, first compound 3.16 µM
[24] = second compound 3.16 µM, first compound 10 µM
[25] = second compound 10 µM, first compound 0.0316 µM
[26] = second compound 10 µM, first compound 0.1 µM
[27] = second compound 10 µM, first compound 0.316 µM
[28] = second compound 10 µM, first compound 1 µM
[29] = second compound 10 µM, first compound 3.16 µM
[30] = second compound 10 µM, first compound 10 µM

Compound | IC50 (second compound 0.1 µM) [µM] | IC50 (second compound 0.316 µM) [µM] | IC50 (second compound 1 µM) [µM] | IC50 (second compound 3.16 µM) [µM] | IC50 (second compound 10 µM) [µM] | viability, T/C [1] [%] | viability, T/C [2] [%] | viability, T/C [3] [%] | viability, T/C [4] [%] | viability, T/C [5] [%] | viability, T/C [6] [%] | viability, T/C [7] [%] | viability, T/C [8] [%] | viability, T/C [9] [%] | viability, T/C [10] [%] | viability, T/C [11] [%] | viability, T/C [12] [%] | viability, T/C [13] [%] | viability, T/C [14] [%] | viability, T/C [15] [%] | also measured
CC1(C)CCC(CN2CCN(c3ccc(C(=O)NS(=O)(=O)c4ccc(NCC5CCOCC5)c([N+](=O)[O-])c4)c(Oc4cnc5[nH]ccc5c4)c3)CC2)=C(c2ccc(Cl)cc2)C1 + NC1CC1c1ccc(-c2cccc(O)c2)cc1 | 5.68 | 5.2 | 5.54 | 5.49 | 4.93 | 91.2 | 99.9 | 99 | 84.2 | 85.7 | 16.9 | 98.6 | 101 | 87.1 | 84 | 79.2 | 16.1 | 94.3 | 97.4 | 95.6 | viability, T/C [16]: 95.7%; viability, T/C [17]: 79.2%; viability, T/C [18]: 19%; viability, T/C [19]: 96.5%; viability, T/C [20]: 105%; viability, T/C [21]: 101%; viability, T/C [22]: 84.8%; viability, T/C [23]: 80.6%; viability, T/C [24]: 20%; viability, T/C [25]: 94.9%; viability, T/C [26]: 95.6%; viability, T/C [27]: 97.3%; viability, T/C [28]: 92.1%; viability, T/C [29]: 72.5%; viability, T/C [30]: 14.2%
CC1COCCN1c1cc(C2(S(C)(=N)=O)CC2)nc(-c2ccnc3[nH]ccc23)n1 (stereo not given) + NC1CC1c1ccc(-c2cccc(O)c2)cc1 | > 10 | > 10 | > 10 | > 10 | > 10 | 97.7 | 88.3 | 92.2 | 89.1 | 73.9 | 63.6 | 97.3 | 95.8 | 88 | 89.6 | 77.1 | 64.5 | 98.2 | 93.1 | 108 | viability, T/C [16]: 89.2%; viability, T/C [17]: 67.7%; viability, T/C [18]: 62%; viability, T/C [19]: 103%; viability, T/C [20]: 96.8%; viability, T/C [21]: 93.9%; viability, T/C [22]: 85.6%; viability, T/C [23]: 70.2%; viability, T/C [24]: 61.5%; viability, T/C [25]: 94.8%; viability, T/C [26]: 102%; viability, T/C [27]: 93%; viability, T/C [28]: 91.6%; viability, T/C [29]: 71.3%; viability, T/C [30]: 64.3%
